Experiments:
HSPB1 = HSPB1 expression in Aβ-GFP SH-SY5Y cells (Western blot); assay type: cell-based, human; conditions: 5 μM; uninduced cells = 100%, induced untreated cells 90%
Source text: The result is shown in FIG. 6, wherein the relative HSPB1 level of uninduced cells is set as 100%. *, P<0.05 between induced vs uninduced cells or compound-treated vs. untreated cells (n=3).

[1] = system: mouse hippocampal primary culture; assay: Mouse hippocampal primary culture under oligomeric Aβ toxicity; assay type: cell-based; conditions: 1, 10 or 30 μM, oligomeric Aβ 1 μM, vs. Aβ alone; for total cells (DAPI staining) against oligomeric Aβ toxicity: FIG. 7(A); for mature neurons (NeuN staining) against oligomeric Aβ toxicity: FIG. 7(B); for synaptophysin level against oligomeric Aβ toxicity: FIG. 7(F); for neurite outgrowth (process, branch, length; MAP2 staining) against oligomeric Aβ toxicity: FIGS. 7(C)-(E)
Experimental: Postnatal day 0-1 mouse hippocampus was isolated for primary culture, and used to confirm the neuroprotective potential of the compounds of the present invention. Oligomeric Aβ (1 μM) was applied to the primary culture after the indolylquinoline compound (compounds 1, 2, 6 and 7) administration (1, 10, or 30 μM) at day 9. Cells were harvested 1 hr later for immunocytochemical analysis and quantitated the total cell number (as shown in FIG. 7(A), by DAPI staining), mature neuron number (as shown in FIG. 7(B), by NeuN antibody staining), neurite process (as shown in FIG. 7(C), by MAP2 antibody staining), neurite branch (as shown in FIG. 7(D), by MAP2 antibody staining), neurite length (as shown in FIG. 7(E), by MAP2 antibody staining), and synaptophysin expression level (as shown in FIG. 7(F), by synaptophysin antibody staining) In FIG. 7(A) to (F), the relative amount of cells treated with vesicle (hexafluoroisopropanol) is set as 100%. ###, P<0.001 between cells treated with Aβ and vehicle (n=3). *, P<0.05; **, P<0.01; ***, P<0.001 between cells treated with Aβ combined the compound of the present invention and Aβ alone (n=3).

[2] = system: Tet-On Aβ-GFP HEK-293 cells; assay: Tet-On Aβ-GFP HEK-293 cell assay (GFP fluorescence, HCA); assay type: cell-based, human; conditions: 8 hr pretreatment, Dox 64 hr, untreated cells = 100%
Source text: For cell assay, we used a HEK-293 cell clone (human embryonic kidney cells) with Tet-On Aβ-GFP expression as a screening platform. GFP fluorescence was used to reflect Aβ aggregation status as Aβ aggregated rapidly to cause the fused GFP misfolded. Inhibition of Aβ aggregation may improve GFP misfolding, leading to increasing fluorescence on Aβ-GFP expressing cells. Tet-On Aβ-GFP HEK-293 cells were pretreated with different concentrations of compounds 1, 2, 6, 7 and curcumin for 8 hr before inducing Aβ-GFP expression. Then doxycycline (Dox) (10 μM) was added to the medium for 64 hr to induce Aβ-GFP expression, and GFP fluorescence was assessed by a high-content analysis (HCA) system (ImageXpressMICRO, available from Molecular Devices). To normalize, the relative GFP fluorescence of untreated cells (untreated with compounds 1, 2, 6 and 7, and curcumin) is set as 100%. *, P<0.05 as compared to the untreated cells; #, P<0.05 as compared to the same concentration curcumin-treated cells (n=3).

Trx-His-Aβ protein = target: T1, Trx-His-Aβ protein (Homo sapiens, UniProt P05067); assay: Trx-His-Aβ biochemical assay (thioflavin T staining); conditions: Trx-His-Aβ 10 μM, 37° C., 48 hr, Trx-His-Aβ with 2 days' incubation = 100%
T1 construct: the inventors overexpressed Trx-His tagged Aβ construct in E. coli; made in house; host or cells: E. coli
Experimental: Aggregation of β-amyloid (Aβ) was considered as target for intervention. For the biochemical assay, the inventors overexpressed Trx-His tagged Aβ construct in E. coli. After metal-affinity chromatography purification, the misfolded Trx-His-Aβ proteins can be identified by thioflavin T staining assay. The fluorescent intensity is increased after thioflavin T binds misfolded Trx-His-Aβ protein, and thus the misfolding level of Trx-His-Aβ protein can be measured. […] Then thioflavin T (10 μM) was added for 5 min and fluorescence analyzed on a microplate reader (excitation: 420 nm, emission: 485 nm). To normalize, the relative thioflavin T fluorescence of Trx-His-Aβ protein with 2 days' incubation at 37° C. is set as 100%. *, P<0.05 (n=3).

[3] = system: Tet-On Aβ-GFP SH-SY5Y cells; assay: Neurite outgrowth in Tet-On Aβ-GFP SH-SY5Y cells (TUBB3 immunostaining, HCA); assay type: cell-based, human; conditions: 5 μM; Dox 6 days; uninduced cells = 100%, induced untreated cells 87%
Experimental: Tet-On Aβ human neuroblastoma SH-SY5Y cells were used to examine the neuroprotective potential of the compounds of the present invention. Tet-On Aβ-GFP SH-SY5Y cells were plated into 24-well plates with 10 μM retinoic acid (RA), grown for 24 hr and treated with tested indolylquinoline compounds 1, 2, 6 and 7 (5 μM) for 8 hr. Then doxycycline (10 μM) was added to the medium to for 6 days. Neurite outgrowth was assessed after TUBB3 immunostaining, and examined with the HCA system. The result is shown in FIG. 5, wherein the relative neurite outgrowth of uninduced cells (untreated with Dox) is set as 100%. *, P<0.05 between induced vs. uninduced cells or compound-treated vs. untreated cells (n=3).

[4] = system: Tet-On Aβ-GFP HEK-293 cells; assay: ROS assay in Tet-On Aβ-GFP HEK-293 cells; assay type: cell-based, human; conditions: 5 μM; uninduced cells = 100%, induced untreated cells 128%
Experimental: Given that Aβ deposition causes cell death via a number of potential mechanisms including oxidative stress, the inventor also performed ROS assay with curcumin or synthetic indolylquinoline compounds 1, 2, 6 and 7 treatment (5 μM).

[5] = 1.2˜5.0 μM, above 80% of viable cells

T1 sequence (P05067 672-713 limits assumed): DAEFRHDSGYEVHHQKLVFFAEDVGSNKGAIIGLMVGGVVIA

relative thioflavin T fluorescence (misfolded Trx-His-Aβ aggregation) (Trx-His-Aβ protein; 10˜20 μM compound) | relative thioflavin T fluorescence (misfolded Trx-His-Aβ aggregation) (Trx-His-Aβ protein; 20 μM compound) [%] | relative thioflavin T fluorescence (misfolded Trx-His-Aβ aggregation) (Trx-His-Aβ protein; 5˜20 μM compound) | Compound | relative HSPB1 level (HSPB1) [%] | total cells (DAPI staining) against oligomeric Aβ toxicity [1] | mature neurons (NeuN staining) against oligomeric Aβ toxicity [1] | synaptophysin level against oligomeric Aβ toxicity [1] | neurite outgrowth (process, branch, length; MAP2 staining) against oligomeric Aβ toxicity [1] | relative GFP fluorescence (Aβ-GFP) ([2]; 1.2˜2.5 μM, above 80% of viable cells) | relative GFP fluorescence (Aβ-GFP) [2, 5] | relative neurite outgrowth [3] [%] | relative ROS level [4] [%] | relative GFP fluorescence (Aβ-GFP) ([2]; 2.5˜5.0 μM) | relative GFP fluorescence (Aβ-GFP) ([2]; 1.2 μM, above 80% of viable cells) [%]
74˜70% | – | – | CC(=O)C(=Cc1ccccc1[N+](=O)[O-])Cc1c(C)[nH]c2ccccc12 [compound 2] | 112 | significantly improved | significantly improved | significantly improved | significantly improved | 107˜120% | – | – | – | – | –
– | 79 | – | CC(=O)C(=Cc1ccccc1[N+](=O)[O-])Cc1c[nH]c2ccccc12 [compound 1] | 126 | significantly improved | significantly improved | significantly improved | significantly improved | – | 112˜129% | – | – | – | –
– | – | 90˜71% | CCc1cccc2c(CC(=Cc3ccccc3[N+](=O)[O-])C(C)=O)c[nH]c12 [compound 6] | 116 | significantly improved | significantly improved | significantly improved | significantly improved | – | 107˜130% | – | – | – | –
– | – | 76˜54% | COc1cc(/C=C/C(=O)CC(=O)/C=C/c2ccc(O)c(OC)c2)ccc1O [curcumin, reference compound] | 123 | – | – | – | – | – | – | 105 | 86 | 111˜122% | –
– | 84 | – | Cc1nc2ccccc2cc1Cc1c[nH]c2ccccc12 [compound 7] | 117 | significantly improved | significantly improved | significantly improved | significantly improved | – | – | – | – | – | 105
